{"source": "patent US20250367322A1", "about": "“NUCLEOBASE EDITING SYSTEM AND METHOD OF USING SAME FOR MODIFYING NUCLEIC ACID SEQUENCES” (ReNAgade Therapeutics Management, Inc., priority 2022, published 2025)", "key": {"[1]": {"tested_on": "Mus musculus EMX1 locus (mEMX1)", "test": "In vivo TnpB editing of mouse EMX1 locus in liver, delivered with an LNP (indels detected by NGS)", "details": "TnpB delivered with an LNP (Table (III) Compound C59), FIG. 7"}, "[2]": {"tested_on": "human EMX1 locus (hEMX1)", "test": "TnpB endonuclease editing of human EMX1 locus in HEK293T cells (indels detected by NGS)", "assay_type": "cell-based", "details": "FIG. 5"}}, "data": [{"molecule": "CCCCCC(CCCCC)CCOC(=O)CCCCCCCC(CCCCCCCC(=O)OC1CC2CCCC1C2)OC(=O)CCCN(C)C", "note": "(centres unmarked) [Compound C59]", "values": [{"measurement": "editing of Mus musculus EMX1 locus (mEMX1) in liver in vivo", "setting": "[1]", "value": "edits Mus musculus EMX1 locus (mEMX1) in liver in vivo"}]}, {"molecule": "TnpB (SEQ ID NO: 1): \"TnpB (SEQ ID NO: 1) endonuclease edits human EMX1 locus (hEMX1) in HEK293T cells\" (protein, Deinococcus radiodurans) MIRNKAFVVRLYPNAAQTELINRTLGSARFVYNHFLARRIAAYKESGKGLTYGQTSSELTLLKQAEETSWLSEVDKFALQNSLKNLETAYKNFFRTVKQSGKKVGFPRFRKKRTGESYRTQFTNNNIQIGEGRLKLPKLGWVKTKGQQDIQGKILNVTVRRIHEGHYEASVLCEVEIPYLPAAPKFAAGVDVGIKDFAIVTDGVRFKHEQNPKYYRSTLKRLRKAQQTLSRRKKGSARYGKAKTKLARIHKRIVNKRQDFLHKLTTSLVREYEIIGTEHLKPDNMRKNRRLALSISDAGWGEFIRQLEYKAAWYGRLVSKVSPYFPSSQLCHDCGFKNPEVKNLAVRTWTCPNCGETHDRDENAALNIRREALVAAGISDTLNAHGGYVRPASAGNGLRSENHATLVV", "values": [{"measurement": "editing of human EMX1 locus (hEMX1)", "setting": "[2]", "value": "edits human EMX1 locus"}]}]}
